Source: patent publication US20150105252A1, “SUBSTITUTED PYRAZOLES AS HERBICIDES” (E I DU PONT DE NEMOURS AND COMPANY, priority 2013, published 2015)

Key:
[1] = test system: rice; assay: Test B flood; assay type: in vivo, Oryza sativa; conditions: 250 g ai/ha, visual rating on 0 to 100 scale (0 no effect, 100 complete control), 13 to 15 days
Procedure, shortened: (§1)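 2-leaf plants; pots flooded 3 cm over soil; compound added to paddy water, depth kept constant. Greenhouse 13–15 d. Visual rating vs controls, 0–100 scale (100 = complete control); dash = no result.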

[2] = test system: velvetleaf; assay: Test A preemergence; assay type: in vivo, Abutilon theophrasti; conditions: preemergence; for Velvetleaf plant response rating (0 to 100 scale): 125 g ai/ha, visual injury approx. 10 days after treatment; for Velvetleaf plant response rating: 500 g ai/ha, visual injury after approx. 10 days, 0 to 100 scale (0 no effect, 100 complete control)
Procedure, shortened: (§2)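 Visual injury rating, 0–100 (0 no effect, 100 complete control), vs untreated controls ~10 days after treatment in greenhouse. Pre: directed soil spray on seeded loam/sand. Post: 2–10 cm plants, 1–2 leaf stage. Formulation: non-phytotoxic solvent mix + surfactant.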

[3] = test system: barnyardgrass; assay: Test A postemergence; assay type: in vivo, Echinochloa crus-galli
Procedure, shortened: as §2

[4] = test system: morningglory; assay: Test A preemergence; assay type: in vivo, Ipomoea spp.; conditions: preemergence; for Morningglory plant response rating (0 to 100 scale): 125 g ai/ha, visual injury approx. 10 days after treatment; for Morningglory plant response rating: 500 g ai/ha, visual injury after approx. 10 days, 0 to 100 scale (0 no effect, 100 complete control)
Procedure, shortened: as §2

[5] = test system: morningglory; assay: Test A postemergence; assay type: in vivo, Ipomoea spp.
Procedure, shortened: as §2

[6] = test system: crabgrass, large; assay: Test A preemergence; assay type: in vivo, Digitaria sanguinalis; conditions: preemergence; for Crabgrass, Large plant response rating (0 to 100 scale): 125 g ai/ha, visual injury approx. 10 days after treatment; for Crabgrass, Large plant response rating: 500 g ai/ha, visual injury after approx. 10 days, 0 to 100 scale (0 no effect, 100 complete control)
Procedure, shortened: as §2

[7] = test system: pigweed; assay: Test A postemergence; assay type: in vivo, Amaranthus retroflexus
Procedure, shortened: as §2

[8] = test system: barnyardgrass; assay: Test B flood; assay type: in vivo, Echinochloa crus-galli; conditions: 250 g ai/ha, visual rating on 0 to 100 scale (0 no effect, 100 complete control), 13 to 15 days
Procedure, shortened: as §1

[9] = test system: foxtail, giant; assay: Test A postemergence; assay type: in vivo, Setaria faberii
Procedure, shortened: as §2

[10] = test system: foxtail, giant; assay: Test A preemergence; assay type: in vivo, Setaria faberii; conditions: preemergence; for Foxtail, Giant plant response rating (0 to 100 scale): 125 g ai/ha, visual injury approx. 10 days after treatment; for Foxtail, Giant plant response rating: 500 g ai/ha, visual injury after approx. 10 days, 0 to 100 scale (0 no effect, 100 complete control)
Procedure, shortened: as §2

[11] = test system: barnyardgrass; assay: Test A preemergence; assay type: in vivo, Echinochloa crus-galli; conditions: preemergence
Procedure, shortened: as §2

[12] = test system: ducksalad; assay: Test B flood; assay type: in vivo, Heteranthera limosa; conditions: 250 g ai/ha, visual rating on 0 to 100 scale (0 no effect, 100 complete control), 13 to 15 days
Procedure, shortened: as §1

[13] = test system: sedge, umbrella; assay: Test B flood; assay type: in vivo, Cyperus difformis; conditions: 250 g ai/ha, visual rating on 0 to 100 scale (0 no effect, 100 complete control), 13 to 15 days
Procedure, shortened: as §1

[14] = test system: wheat; assay: Test A preemergence; assay type: in vivo, Triticum aestivum; conditions: preemergence; for Wheat plant response rating (0 to 100 scale): 125 g ai/ha, visual injury approx. 10 days after treatment; for Wheat plant response rating: 500 g ai/ha, visual injury after approx. 10 days, 0 to 100 scale (0 no effect, 100 complete control)
Procedure, shortened: as §2

[15] = test system: pigweed; assay: Test A preemergence; assay type: in vivo, Amaranthus retroflexus; conditions: preemergence; for Pigweed plant response rating (0 to 100 scale): 125 g ai/ha, visual injury approx. 10 days after treatment; for Pigweed plant response rating: 500 g ai/ha, visual injury after approx. 10 days, 0 to 100 scale (0 no effect, 100 complete control)
Procedure, shortened: as §2

[16] = test system: velvetleaf; assay: Test A postemergence; assay type: in vivo, Abutilon theophrasti
Procedure, shortened: as §2

[17] = test system: crabgrass, large; assay: Test A postemergence; assay type: in vivo, Digitaria sanguinalis
Procedure, shortened: as §2

[18] = test system: wheat; assay: Test A postemergence; assay type: in vivo, Triticum aestivum
Procedure, shortened: as §2

[19] = test system: corn; assay: Test A preemergence; assay type: in vivo, Zea mays; conditions: preemergence; for Corn plant response rating (0 to 100 scale): 125 g ai/ha, visual injury approx. 10 days after treatment; for Corn plant response rating: 500 g ai/ha, visual injury after approx. 10 days, 0 to 100 scale (0 no effect, 100 complete control)
Procedure, shortened: as §2

[20] = test system: corn; assay: Test A postemergence; assay type: in vivo, Zea mays
Procedure, shortened: as §2

[21] = Postemergence, 500 g ai/ha, 0 to 100 scale (0 no effect, 100 complete control)
[22] = postemergence, 125 g ai/ha, about 10 days, visual rating on 0 to 100 scale (0 no effect, 100 complete control)
[23] = 500 g ai/ha, visual injury after approx. 10 days, 0 to 100 scale (0 no effect, 100 complete control)

## O=C(NC1CC1)c1cc(Cl)n(Cc2cccc(C(F)(F)F)c2)n1 [Compound 174]
[1]
  Plant response rating, Rice: 0
[2]
  Velvetleaf plant response rating (0 to 100 scale): 0
  Velvetleaf plant response rating: 0
[3]; [21]
  Barnyardgrass plant response rating: 10
[3]; [22]
  Barnyardgrass plant response rating: 0
[4]
  Morningglory plant response rating (0 to 100 scale): 0
  Morningglory plant response rating: 0
[5]; [21]
  Morningglory plant response rating: 10
[5]; [22]
  Morningglory plant response rating: 0
[6]
  Crabgrass, Large plant response rating (0 to 100 scale): 10
  Crabgrass, Large plant response rating: 40
[7]; [21]
  Pigweed plant response rating: 90
[7]; [22]
  Pigweed plant response rating: 20
[8]
  Plant response rating, Barnyardgrass: 0
[9]; [21]
  Foxtail, Giant plant response rating: 0
[9]; [22]
  Foxtail, Giant plant response rating: 0
[10]
  Foxtail, Giant plant response rating (0 to 100 scale): 0
  Foxtail, Giant plant response rating: 20
[11]; 125 g ai/ha, visual injury, 0 to 100 scale, approx. 10 days
  Barnyardgrass plant response rating: 0
[11]; [23]
  Barnyardgrass plant response rating: 0
[12]
  Plant response rating, Ducksalad: 0
[13]
  Plant response rating, Sedge, Umbrella: 0
[14]
  Wheat plant response rating (0 to 100 scale): 0
  Wheat plant response rating: 0
[15]
  Pigweed plant response rating (0 to 100 scale): 20
  Pigweed plant response rating: 90
[16]; [21]
  Velvetleaf plant response rating: 10
[16]; [22]
  Velvetleaf plant response rating: 0
[17]; [21]
  Crabgrass, Large plant response rating: 10
[17]; [22]
  Crabgrass, Large plant response rating: 0
[18]; [21]
  Wheat plant response rating: 0
[18]; [22]
  Wheat plant response rating: 0
[19]
  Corn plant response rating (0 to 100 scale): 0
  Corn plant response rating: 0
[20]; [21]
  Corn plant response rating: 10
[20]; [22]
  Corn plant response rating: 0

## O=C(NCC(F)(F)F)c1cc(I)n(Cc2cccc(C(F)(F)F)c2)n1 [Compound 181]
[1]
  Plant response rating, Rice: 20
[2]
  Velvetleaf plant response rating (0 to 100 scale): 0
  Velvetleaf plant response rating: 0
[3]; [21]
  Barnyardgrass plant response rating: 10
[3]; [22]
  Barnyardgrass plant response rating: 10
[4]
  Morningglory plant response rating (0 to 100 scale): 0
  Morningglory plant response rating: 0
[5]; [21]
  Morningglory plant response rating: 80
[6]
  Crabgrass, Large plant response rating (0 to 100 scale): 10
  Crabgrass, Large plant response rating: 60
[7]; [21]
  Pigweed plant response rating: 100
[8]
  Plant response rating, Barnyardgrass: 0
[9]; [21]
  Foxtail, Giant plant response rating: 10
[9]; [22]
  Foxtail, Giant plant response rating: 0
[10]
  Foxtail, Giant plant response rating (0 to 100 scale): 0
  Foxtail, Giant plant response rating: 20
[11]; 125 g ai/ha, visual injury approx. 10 days after treatment
  Barnyardgrass plant response rating (0 to 100 scale, 0 is no effect, 100 is complete control): 0
[11]; [23]
  Barnyardgrass plant response rating: 10
[12]
  Plant response rating, Ducksalad: 0
[13]
  Plant response rating, Sedge, Umbrella: 40
[14]
  Wheat plant response rating (0 to 100 scale): 0
  Wheat plant response rating: 0
[15]
  Pigweed plant response rating (0 to 100 scale): 10
  Pigweed plant response rating: 50
[16]; [21]
  Velvetleaf plant response rating: 20
[17]; [21]
  Crabgrass, Large plant response rating: 10
[17]; [22]
  Crabgrass, Large plant response rating: 10
[18]; [21]
  Wheat plant response rating: 0
[19]
  Corn plant response rating (0 to 100 scale): 0
  Corn plant response rating: 0
[20]; [21]
  Corn plant response rating: 20
[20]; [22]
  Corn plant response rating: 0
